Laboratory results published in patent US20160243062A1, “SYNTHESIS AND GROWTH REGULATORY ACTIVITY OF A PROTOTYPE MEMBER OF A NEW FAMILY OF AMINOTHIOL RADIOPROTECTORS” (WISCONSIN ALUMNI RESEARCH FOUNDATION, priority 2012, published 2016).

System: radiation dermatitis in rat skin
Experiment: Rat radiation dermatitis assay, topical application before irradiation
Type: in vivo
Description: To determine if PrC-210 could function as a topical radioprotector that could prevent radiation dermatitis when applied prior to a cancer patient's daily radiotherapy, a rat assay that realistically mimics human radiation dermatitis was created. This assay quantifies the severity of radiation dermatitis in rat skin 13 days after a single radiation dose of 17.33 Gy.
In this study, PrC-210 was applied to rat skin in an ethanol/water delivery vehicle four times in the 2 h before irradiation, and control rats received only topical vehicle before irradiation (FIG. 2). Additional drug/irradiation groups of three rats each received either the alkyl-thiol moiety or the alkyldiamine moiety from PrC-210 in the same delivery vehicle. Following the 17.33 Gy irradiation of a […] patch of dorsal skin on the rats' backs, rats were scored 13 days later.
Molecules were applied to skin in an alcohol/water delivery vehicle prior to receiving a 17.33 Gy radiation dose to the 1.5 cm×3.0 cm skin site. Radiation dermatitis severity (i.e., % of the site covered by scab material) was scored 13 days following irradiation.

CNCC(CS)CNC [PrC-210, 3-(methyl-amino)-2-((methylamino)methyl)propane-l-thiol] was tested, and the “topical radioprotective potency and efficacy compared with thiolated polyamines and other PrC-200 series aminothiols” value (radiodermatitis test groups) was “most potent and most effective topical aminothiol to date” and the “prevention of radiation dermatitis (% of the site covered by scab material)” value (topical in ethanol/water vehicle four times in the 2 h before single 17.33 Gy dose, scored 13 days later) was “completely prevent radiation dermatitis”.
